Results on one compound are retold here after publication PMC12111156, “Nitazoxanide Analogs: Synthesis, In Vitro Giardicidal Activity, and Effects on Giardia lamblia Metabolic Gene Expression” (International Journal of Molecular Sciences, 2025).

Series [1] has as its system HT-29 cells. Description: Cytotoxicity, XTT viability assay, HT-29. To be noted: CC50 HT-29 / IC50 trophozoite ATCC strain 30957. On the procedure: (§1) The cytotoxicity assay was performed to evaluate the effect of the selected compounds on human cells. Colon cells were used because they are cell lines like those present in the microenvironment where G. lamblia colonizes, which is the small intestine of the host. The assay was performed using the human cell lines Caco-2 (ATCC HTB-37) and HT-29 (ATCC […]). Cell viability was determined using the Cell Proliferation Kit II (XTT, St. Louis, MO, EE. UU.). A cell suspension of 2 × 10^3 cells/mL was prepared in Dulbecco’s modified Eagle’s medium (DMEM) supplemented with 10% inactivated fetal bovine serum and an antibiotic (1% penicillin/streptomycin, 5000 U/mL, in a volume of 100 µL). The suspension was added to a 96-well plate. The plates were incubated for 24 h at 37 °C in a 5% CO2 atmosphere. […] The cells were incubated for 48 h at 37 °C in a 5% CO2 atmosphere. Cell viability was determined using the following steps. The medium in each well was replaced with 100 µL of fresh medium, and 50 µL of XTT labeling mix was added per well. The reaction was incubated for four hours at 37 °C and 5% CO2. After incubation, the absorbance of the samples on the plate was measured at 450 nm. Each compound was assayed in triplicate in three independent experiments. CC50 values (μM) were determined using the nonlinear regression function of GraphPad Prism version 8 for Windows.
Background: Formazan colour is commonly taken as a measure of viable cells.

The nature of series [2]: Cytotoxicity, XTT viability assay, HT-29. As to conditions: human, HT-29 cells, CC50 HT-29, 48 h, XTT. On the procedure:
as §1

Series [3] is described as follows: Cytotoxicity, XTT viability assay, Caco-2. To be noted: human. Here is the method:
as §1

In series [4] the test system is G. lamblia trophozoites. The series is described as follows: Cell damage by transmission electron microscopy. To be noted: IC50 concentration, 24 h. The series is classed as cell-based, Giardia lamblia. On the procedure:
The trophozoites were incubated for 24 h at 37 °C and then collected by cooling them in an ice bath for 10 min and centrifuging at 2000 rpm for 7 min. The samples were sent for preparation and observation at the Instituto de Fisiología Celular, UNAM. The analysis was performed using a JEOL-JEM-1200 transmission electron microscope (JEOL LTD, Tokyo, Japan) equipped with a GATAN CCD camera at the Imaging Unit of the Institute of Cellular Physiology, UNAM.

The subject of series [5] is G6PD::6PGL enzyme of G. lamblia. To be noted: cited from earlier work.
The test system of series [6] is G. lamblia strain resistant to nitazoxanide. Description: Giardicidal activity in nitazoxanide-resistant strain (trypan blue count). In kind it is cell-based. To be noted: Giardia duodenalis, 48 h, read-out: IC50 G. lamblia (NTZ Resistant). Here is the method:
A pre-culture at confluence was used as a starting point, and a concentration–response curve was plotted using an initial compound concentration of 25 μM in a final volume of 1.5 mL of TYI-S-33 medium, followed by serial dilutions of the compound. Each treatment was inoculated with 1.5 × 10^5 trophozoites and incubated for 48 h at 37 °C. At the end of the incubation, the number of trophozoites was determined using the trypan blue assay and by counting in a Neubauer chamber. The viability percentage at each compound concentration was calculated using the negative control as a reference.

Series [7] deals with Caco-2 and HT-29 cells. Description: Cytotoxicity, XTT viability assay, stated for both cell lines. In kind it is cell-based, human. To be noted: 125 µM, 48 h. On the procedure:
The suspension was added to a 96-well plate. […] Cell viability was determined using the following steps.

In series [8] the test system is G. lamblia strain ATCC 30957. Description: Viability of Giardia lamblia trophozoite culture (trypan blue count). The series is classed as cell-based. Here is the method: Viability analysis was performed on G. lamblia strain ATCC 30957 grown in TYI-S-33 medium supplemented with 10% fetal bovine serum (FBS) and an antibiotic. Pre-culture was performed in 16 × 150 mm borosilicate tubes with a medium inoculated with 2 × 10^5 trophozoites and incubated at 37 °C for 48 h. For the recovery of the trophozoites, the vial was incubated in ice for 8 min and centrifuged for 6 min at 2000 rpm. The concentrated trophozoites were suspended in 1 mL of phosphate-buffered saline (PBS), and the number of trophozoites was counted by placing a 1:1 volume ratio of cell culture and trypan blue dye (4 g/L); then, a homogeneous drop of the mixture was taken and placed in the Neubauer chamber, and the total cells were counted.
The curves were plotted for concentrations of 0–50 µM of each compound. The assay was performed by placing 1.5 × 10^5 cells in 1.5 mL microcentrifuge tubes with a supplemented medium and different concentrations of each compound (0–50 µM). The negative control was performed under the same conditions without a compound, and the drugs NTZ and MTZ were used as positive controls. The samples were incubated for 48 h at 37 °C. At the end of the incubation, the cell viability count was performed using the trypan blue technique. The viability calculation was performed following the formula nv/(nv + nm), where nv represents the live cells and nm represents the dead cells; the viability value obtained was expressed as a percentage. The IC50 value of each compound was determined using the IC50 Calculator software (https://www.aatbio.com/tools/ic50-calculator).

As a reminder, the CC50 is the concentration at which the toxic effect on the cells reaches its halfway point. A low value points to greater toxicity to the cells. As usually defined, the IC50 is the midpoint of a concentration-inhibition curve.

Turning to `CCCCC(=O)Nc1ncc([N+](=O)[O-])s1` [FLP-2, N-(5-Nitro-1,3-thiazol-2-yl)pentanamide], in series [1], the “Selectivity index (CC50/IC50) HT-29” value was found to be 531. Further, the CC50 at 48 h stood at 1910 µM in series [2] and 3180 µM in series [3] (Caco-2, CC50 Caco-2, 48 h, XTT). Moreover, the selectivity ratio at 48 h in series [3] (Caco-2) was determined as 884. The “Ultrastructural effect on trophozoites (TEM)” value in series [4] is given as “significant morphological alterations”. Besides, the “Inhibition of the G6PD::6PGL enzyme (in words)” value in series [5] is “inhibitors of the G6PD enzyme”. Also, the IC50 in series [6] was determined as 0.37 µM. In series [7], the “Decrease of cell viability” value is listed as “up to 20%”. The “Inhibition of growth of G. lamblia parasite culture” value in series [8] (concentration not given) is “more than 98%”. Also, the “Relative potency compared with NTZ” value in series [8] (ratio of IC50 values, ATCC strain) is listed as 1.2 times.
